Test results as given in US12157713B2, “Conjugated oligoelectrolytes as antimicrobial agents” (Nanyang Technological University, priority 2018, dated 2024).

Assays:
E. coli K12 = experiment: MIC by broth microdilution against E. coli K12; type: cell-based; conditions: Escherichia coli, K12; broth microdilution, MHB, 18 hrs; read-out: MIC against E. coli K12
Protocol: (§1) The respective minimum inhibition concentration (MIC) of each COE molecule was determined using a broth microdilution method. Briefly, COEs were diluted via a 2-fold dilution series in 100 μL of either Muller Hinton Broth (MHB) for E. coli and S. aureus or Brain Heart Infusion Broth (BHI) for E. faecalis in a 96-well plate to achieve the desired final concentration. Subsequently, each well was inoculated with 100 μL of 1×10^6 colony forming units (CFU) mL^−1 of the respective microorganism in MHB for E. coli or BHI for E. faecalis to achieve an inoculum density of 5×10^5 CFU mL^−1. The plates were then incubated at 37° C. with shaking (200 rpm) for 18 hrs. […] The results were obtained in triplicate.
The MIC values of COE-D4, COE-D6 and COE-D8 against the reference strain E. coli K12, pathogenic E. coli UT189, and the Gram positive pathogen Enterococcus faecalis OG1RF were determined using a broth microdilution method as described in the general method above. The MICs for E. coli K12 were determined to be 128, 16, and 4 μg mL^−1 for COE-D4, COE-D6, and COE-D8, respectively (FIG. 5a). […] This is not surprising as these two organisms differ in the capsular polysaccharides that they expressed, which are known to hinder the uptake of antimicrobials and mitigate their potency (M. A. Campos, et al., Infect. Immun. 2004, 72, 7107-7114). A K-type capsid comprising α2-8-linked sialic acid is excreted by UT189 and is known to be an important virulence factor for this organism (C. Whitfield, et al., Mol. Microbiol. 1999, 31, 1307-1319; G. G. Anderson, et al., Infect. Immun. 2010, 78, 963-975).

[1] = test system: Staphylococcus aureus 25923; experiment: MIC against S. aureus 25923; type: cell-based
Protocol: as §1
The antimicrobial effects of COE-D62N and COE-D82N were also tested on the Gram-positive Staphylococcus aureus 25923 and Methicillin-resistant Staphylococcus aureus(MRSA BAA-40), in comparison with vancomycin (FIG. 5b).

[2] = test system: Staphylococcus aureus MRSA ATCC 43300; experiment: Single-dose growth inhibition, Sa; type: cell-based; conditions: 32 μg/mL single dose, n=2, read-out: Growth inhibition Sa
Protocol: (§2) Inhibition of bacterial growth was determined by measuring the absorbance at 600 nm (OD600), using a Tecan M1000 Pro monochromator plate reader. Growth inhibition was calculated for each well, relative to the reference growths determined from a negative control (media only) and positive control (bacteria without inhibitors) incubated in the same plate. A single dose of 32 μg/mL of COE (final concentration) was used for each test.
(§3) Percentage growth inhibition of an individual sample was calculated based on growth in a reference well determined from negative controls (media only) and positive controls (bacterial/fungal media without inhibitors). Negative inhibition values indicate that the growth rate (or OD600) is higher compared to the reference growth (bacteria/fungi only, set to 0% inhibition). The growth rates for all bacteria and fungi may vary at −/+10%, which were within the reported normal distribution of bacterial/fungal growth. Any significant variations (or outliers/hits) were identified by the modified Z-Score, and the active compounds were selected by a combination of inhibition values and Z-Score.
(§4) A M(i) value of >|2.5| (absolute) would classify the sample as outliers or hits. Active samples were denoted as compounds with inhibition values equal to or above 80% and absolute Z-Score above |2.5| for either replicate (n=2 on different plates). Partial active samples were denoted as compounds with inhibition values from 50% to <80%, or absolute Z-Score below |2.5|.

[3] = test system: Klebsiella pneumoniae MDR ATCC 700603; experiment: Single-dose growth inhibition, Kp; type: cell-based; conditions: ATCC700603, 32 μg/mL single dose, n=2, read-out: Growth inhibition Kp
Protocol: as §2, §3, §4

[4] = test system: Escherichia coli FDA control ATCC 25922; experiment: Single-dose growth inhibition, Ec; type: cell-based; conditions: ATCC25922, 32 μg/mL single dose, n=2, read-out: Growth inhibition Ec
Protocol: as §2, §3, §4

[5] = test system: Pseudomonas aeruginosa ATCC 27853; experiment: Single-dose growth inhibition, Pa; type: cell-based; conditions: ATCC27853, 32 μg/mL single dose, n=2, read-out: Growth inhibition Pa
Protocol: as §2, §3, §4

[6] = test system: Acinetobacter baumannii ATCC 19606; experiment: Single-dose growth inhibition, Ab; type: cell-based; conditions: ATCC19606, 32 μg/mL single dose, n=2, read-out: Growth inhibition Ab
Protocol: as §2, §3, §4

[7] = test system: Candida albicans ATCC 90028; experiment: Single-dose growth inhibition, Ca; type: cell-based; conditions: ATCC90028, 32 μg/mL single dose, n=2, read-out: Growth inhibition Ca
Protocol: (§5) Growth inhibition of C. albicans was determined by measuring the absorbance at 530 nm (OD530), while the growth inhibition of C. neoformans was determined by measuring the difference in absorbance between 600 and 570 nm (OD600-570), after the addition of resazurin (0.001 wt. % final concentration) and incubation at 35° C. for additional 2 hrs. The absorbance was measured using a Biotek Synergy HTX plate reader. The relative growth inhibition was calculated for each well, relative to that determined from a negative control (media only) and positive control (bacteria without inhibitors) on the same plate as references. A single dose of 32 μg/mL of COE (final concentration) was used for each test.
as §3, §4

[8] = test system: Cryptococcus neoformans var. grubii H99; ATCC 208821; experiment: Single-dose growth inhibition, Cn; type: cell-based; conditions: ATCC208821, 32 μg/mL single dose, n=2, read-out: Growth inhibition Cn
Protocol: as §5, §3, §4

[9] = test system: organism classes (Gram-negative, Gram-positive and fungi); experiment: Single-dose screening summary by organism class; type: cell-based; conditions: 32 μg/mL; 0 = no activity
Protocol: as §3
Z-Score analysis was carried out to investigate outliers or hits among the samples. The Z-Score was calculated based on the sample population using a modified Z-Score method which accounts for possible skewed sample population. The modified method uses median and MAD ([…]) instead of average and standard deviation, and a scaling factor (Iglewicz, B. & Hoaglin, D. C. Volume 16: How to Detect and Handle Outliers. The ASQC Basic Reference in Quality Control: Statistical Techniques, 1993). The equation to calculate the modified Z-Score value is as follow: […]
as §4

[10] = test system: Pseudomonas aeruginosa (PAO1) biofilm; experiment: Anti-biofilm assay (MBEC plate, crystal violet); type: cell-based; conditions: P. aeruginosa PAO1 biofilm, 1 hour challenge in M9GC
Protocol: Pseudomonas aeruginosa (PAO1) was grown in Luria-Bertani (LB) broth under shaking (200 rpm) at 37° C. for 16-18 hours. The overnight culture was diluted to 1:200 in M9GC media (M9 medium supplemented with glucose and casamino acids), and 200 μL of diluted culture was added to each well of MBEC plate (Innovotech, Canada). After incubating at 37° C. for 5 hours under shaking (200 rpm), biofilm was formed on the pegs of the MBEC plate. The pegs were then rinsed with 1× phosphate buffered saline (PBS) solution (200 μL per well), and exposed to a two-fold dilution series of COE in M9GC media (200 μL per well). The challenge plate was incubated at 37° C. for 1 hour under shaking (200 rpm), and then the pegs were washed using 200 μL PBS before being dipped into 180 μL 0.1 wt. % crystal violet aqueous solution. After incubating at room temperature for 15 minutes, the pegs were rinsed with PBS twice and transferred to a plate containing 200 μL absolute ethanol in each well for 15 minutes. The biofilm mass was quantified by measuring the absorption of crystal violet/ethanol solution at 550 nm. The minimum biofilm dispersal concentration (MBDC) values were determined as the lowest COE concentration at which biofilm attached on the peg was completely dispersed. The results were repeated in triplicate.

E. faecalis = conditions: literature (Tran et al. 2013); cited from earlier work
[11] = test system: multidrug-resistant Gram-negative bacteria; conditions: literature (Falagas et al. 2005); cited from earlier work

Molecule: C[N+](C)(C)CC[N+](C)(C)CCCCCCOc1ccc(/C=C/c2ccc(/C=C/c3ccc(OCCCCCC[N+](C)(C)CC[N+](C)(C)C)cc3)cc2)cc1 [COE-T62]
- MIC (E. coli K12): 16 µg/mL
- MIC [1]: 2 µg/mL
- inhibition at 32 µg/mL [2]: > 80%
- inhibition at 32 µg/mL [3]: < 50%
- inhibition at 32 µg/mL [4]: > 80%
- inhibition at 32 µg/mL [5]: < 50%
- inhibition at 32 µg/mL [6]: < 50%
- inhibition at 32 µg/mL [7]: > 80%
- inhibition at 32 µg/mL [8]: > 80%
- Activity: number of organism classes the compound has been found active against [9]: 3
- Minimum biofilm dispersal concentration [10]: 8 µg/mL

Molecule: O=C(O)c1cn(C2CC2)c2cc(N3CCNCC3)c(F)cc2c1=O [Ciprofloxacin]
- Minimum biofilm dispersal concentration [10]: >512 µg/mL

Molecule: NC[C@H]1O[C@H](O[C@H]2[C@H](O)[C@@H](O[C@H]3O[C@H](CO)[C@@H](O)[C@H](N)[C@H]3O)[C@H](N)C[C@@H]2N)[C@H](N)C[C@@H]1O [Tobramycin]
- Minimum biofilm dispersal concentration [10]: >512 µg/mL

Molecule: CCCCCCCCCC(=O)N[C@@H](Cc1c[nH]c2ccccc12)C(=O)N[C@H](CC(N)=O)C(=O)N[C@@H](CC(=O)O)C(=O)N[C@@H]1C(=O)NCC(=O)N[C@@H](CCCN)C(=O)N[C@@H](CC(=O)O)C(=O)N[C@H](C)C(=O)N[C@@H](CC(=O)O)C(=O)NCC(=O)N[C@H](CO)C(=O)N[C@@H]([C@H](C)CC(=O)O)C(=O)N[C@@H](CC(=O)c2ccccc2N)C(=O)O[C@@H]1C [daptomycin]
- MIC against E. faecalis in brain heart infusion media (E. faecalis): around 3 μg mL^−1

Molecule: Colistin
- Minimum biofilm dispersal concentration [10]: 4 µg/mL
- MIC against multidrug-resistant Gram-negative bacteria (in general) [11]: ≤ 4 µg/mL

Molecule: Gentamicin
- Minimum biofilm dispersal concentration [10]: >512 µg/mL
